The source of these data is patent publication US10913711B2, “Potent and selective inhibitors of monoamine transporters; method of making; and use thereof” (priority 2013, dated 2021).

Data set [1] can be described thus: Phase II glucuronidation stability in mouse liver microsomes (UDPGA). It counts as in vitro ADME. On the procedure:
Phase I and phase II metabolic stability assay for was conducted in mouse liver microsomes. For phase I metabolism, the reaction was carried out with 100 mM potassium phosphate buffer, pH 7.4, in the presence of NADPH regenerating system (1.3 mM NADPH, 3.3 mM glucose 6-phosphate, 3.3 mM MgCl2, 0.4 U/mL glucose-6-phosphate dehydrogenase, 50 μM sodium citrate). Reactions in duplicate were initiated by addition of the liver microsomes to the incubation mixture (compound final concentration was 10 μM; 0.5 mg/mL microsomes). For phase II glucuronidation reaction compound was added to TRIS-HCl buffer (50 mM, pH 7.5) with microsomes (0.5 mg/mL), along with MgCl2 (8 mM), and alamethicin (25 μg/mL) and pre-incubated at 37° C. The reaction was initiated (in duplicate) with UDPGA at a final concentration of 2 mM. Negative controls in the absence NADPH and UDPGA were carried for both phase I and phase II metabolism respectively, to determine the specific cofactor free degradation. […] Compound disappearance was monitored over time using a liquid chromatography and tandem mass spectrometry (LC/MS/MS) method.
Compounds were separated on an Agilent 1290 UPLC system with a c18 column using a gradient run of 55:45-5:95 water:acetonitrile over 3.2 minutes and detected on an Agilent 6520 QTOF mass spectrometer.

A further data set deals with human DAT A480T mutant (Homo sapiens (Human), UniProt Q01959, A480T). The experiment in a line: [3H]DA uptake inhibition in intact COS7 cells, hDAT A480T. Particulars: for Ki: read-out: hDAT A480T Ki [S.E. interval], [3H]DA uptake inhibition potency; for affinity at DAT A480T compared to DAT WT: uptake inhibition.
human DAT A480T mutant, sequence (Q01959 whole entry A480T): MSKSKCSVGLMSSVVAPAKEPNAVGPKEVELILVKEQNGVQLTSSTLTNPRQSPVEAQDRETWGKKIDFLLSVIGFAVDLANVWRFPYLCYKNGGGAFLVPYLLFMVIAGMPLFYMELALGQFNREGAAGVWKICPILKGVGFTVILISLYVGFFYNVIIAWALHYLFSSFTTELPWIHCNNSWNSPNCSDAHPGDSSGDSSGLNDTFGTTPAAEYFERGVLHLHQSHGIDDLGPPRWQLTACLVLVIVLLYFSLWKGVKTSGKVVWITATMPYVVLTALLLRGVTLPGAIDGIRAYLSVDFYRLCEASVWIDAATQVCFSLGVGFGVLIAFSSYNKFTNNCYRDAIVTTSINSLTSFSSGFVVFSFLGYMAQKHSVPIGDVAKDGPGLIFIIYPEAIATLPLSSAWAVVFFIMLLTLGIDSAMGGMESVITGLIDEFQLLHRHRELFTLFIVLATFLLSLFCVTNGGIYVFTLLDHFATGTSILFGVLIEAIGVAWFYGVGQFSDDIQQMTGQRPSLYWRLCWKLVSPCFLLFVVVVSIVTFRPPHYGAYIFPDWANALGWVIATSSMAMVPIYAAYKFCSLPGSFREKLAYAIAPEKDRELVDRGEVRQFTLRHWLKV
A further data set has as its target human SERT wild type (Homo sapiens (Human), UniProt P31645). It counts as cell-based. To be noted: for Ki: read-out: hSERT WT Ki [S.E. interval]. An excerpt:
(§1) Molecular Pharmacology Site-directed mutagenesis: Synthetic cDNA encoding the human DAT (synDAT) were subcloned into pcDNA3 (Invitrogen, Carlsbad, Calif.). cDNA encoding the human SERT (hSERT) was cloned into the pUbilz expression vector. Mutations herein were generated by the QuickChange method (adapted from Stratagene, La Jolla, Calif.) and confirmed by restriction enzyme mapping and DNA sequencing. Positive clones were amplified by transformation into XL1 blue competent cells (Stratagene) and positive colony picked and grown in LB media over night at 37° C. in an orbital incubator (Infors) @ 200 rpm. Plasmids were harvested using the maxi prep kit provided by Qiagen according to the manufacturer's manual.
(§2) Uptake assays were performed essentially as previously described to Cha, J. H.; Zou, M. F.; Adkins, E. M.; Rasmussen, S. G.; Loland, C. J.; Schoenenberger, B.; Gether, U.; Newman, A. H. Rhodamine-Labeled 2beta-Carbomethoxy-3beta-(3,4-Dichlorophenyl)Tropane Analogues as High-Affinity Fluorescent Probes for the Dopamine Transporter. […] Transiently transfected COS-7 cells were plated in 12-well (3*10^5 cells/well) or 24-well dishes (10^5 cells/well) coated with poly-ornithine to achieve an uptake level of no more than 10% of total added radioligand. The uptake assays were carried out 2 days after transfection. Prior to the experiment, the cells were washed once in 500 μl of uptake buffer buffer (25 mM 4-(2-hydroxyethyl)-1-piperazineethanesulfonic acid (HEPES), 130 mM NaCl, 5.4 mM KCl, 1.2 mM CaCl2, 1.2 mM MgSO4, 1 mM L-ascorbic acid, 5 mM D-glucose, and 1 μM of the catechol-O-methyltransferase inhibitor Ro 41-0960 (Sigma), pH 7.4) at room temperature (RT). […] All samples were transferred to 24-well counting plates and 500 μL (or 600 μL) of Opti-phase Hi Safe 3 scintillation fluid (Perkin Elmer) was added followed by counting of the plates in a Wallac Tri-Lux β-scintillation counter (Perkin Elmer). Nonspecific uptake was determined in the presence of 5 μM paroxetine for hSERT and 50 μM nomifensine for hDAT expressing cells. All determinations were performed in triplicate.

Another data set has as its target human SERT T497A mutant (Homo sapiens (Human), UniProt P31645, T497A). In kind it is cell-based. Particulars: for Ki: read-out: hSERT T497A Ki [S.E. interval].
Description: as §1, §2

Another data set deals with human DAT wild type (Homo sapiens (Human), UniProt Q01959). Nature of the data set: [3H]DA uptake inhibition in intact COS7 cells, hDAT WT. It counts as cell-based. Particulars: [3H]DA uptake inhibition potency, read-out: hDAT WT Ki [S.E. interval].
The target of another data set is DAT (Rattus norvegicus (Rat), UniProt P23977). Nature of the data set: Dopamine Transporter Binding Assay ([3H]WIN 35428, rat striatal membranes).
DAT, sequence (P23977 whole entry): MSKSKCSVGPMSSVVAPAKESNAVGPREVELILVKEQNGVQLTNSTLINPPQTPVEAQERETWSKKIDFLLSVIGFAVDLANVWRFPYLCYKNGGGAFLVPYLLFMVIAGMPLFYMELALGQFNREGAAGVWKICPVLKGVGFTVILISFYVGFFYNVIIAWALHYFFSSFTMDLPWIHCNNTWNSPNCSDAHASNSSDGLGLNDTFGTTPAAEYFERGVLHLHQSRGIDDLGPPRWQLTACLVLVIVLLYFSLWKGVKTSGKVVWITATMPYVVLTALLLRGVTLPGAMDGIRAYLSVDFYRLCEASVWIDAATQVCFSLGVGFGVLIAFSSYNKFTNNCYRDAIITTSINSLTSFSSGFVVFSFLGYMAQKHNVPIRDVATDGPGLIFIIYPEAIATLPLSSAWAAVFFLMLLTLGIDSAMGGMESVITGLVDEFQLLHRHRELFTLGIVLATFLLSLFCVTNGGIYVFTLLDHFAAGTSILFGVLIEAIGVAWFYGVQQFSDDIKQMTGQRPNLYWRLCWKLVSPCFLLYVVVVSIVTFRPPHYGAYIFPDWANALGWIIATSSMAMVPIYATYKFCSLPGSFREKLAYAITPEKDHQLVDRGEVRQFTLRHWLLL
For the next data set, the target named is SERT (Rattus norvegicus (Rat), UniProt P31652). Particulars: 2i v. 2g (Table 1); 4c v. 4a (Table 2).
SERT, sequence (P31652 whole entry): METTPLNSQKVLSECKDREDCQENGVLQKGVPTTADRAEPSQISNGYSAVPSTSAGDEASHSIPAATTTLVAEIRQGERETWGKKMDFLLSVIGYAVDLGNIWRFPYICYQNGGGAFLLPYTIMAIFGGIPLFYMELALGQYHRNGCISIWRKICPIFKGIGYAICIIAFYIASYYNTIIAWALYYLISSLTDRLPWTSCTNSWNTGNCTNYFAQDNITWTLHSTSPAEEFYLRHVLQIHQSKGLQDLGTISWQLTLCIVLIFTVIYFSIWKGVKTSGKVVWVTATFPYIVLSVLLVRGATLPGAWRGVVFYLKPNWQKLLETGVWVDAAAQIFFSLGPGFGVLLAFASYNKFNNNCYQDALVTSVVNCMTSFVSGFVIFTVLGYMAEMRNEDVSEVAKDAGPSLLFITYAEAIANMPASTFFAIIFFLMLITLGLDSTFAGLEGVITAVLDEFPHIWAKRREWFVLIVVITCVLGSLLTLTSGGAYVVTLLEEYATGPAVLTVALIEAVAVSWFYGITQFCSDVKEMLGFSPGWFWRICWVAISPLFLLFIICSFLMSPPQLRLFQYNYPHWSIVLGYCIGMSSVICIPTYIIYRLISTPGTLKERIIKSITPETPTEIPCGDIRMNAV
Another data set concerns the target NET (Rattus norvegicus (Rat), UniProt Q9WTR4). Nature of the data set: Norepinephrine Transporter Binding Assay ([3H]Nisoxetine, rat frontal cortex membranes). On the procedure: Binding affinities of all compounds were evaluated at the DAT, SERT, and NET in rat brain membranes using previously described methods:
Norepinephrine Transporter Binding Assay. Brains from male Sprague-Dawley rats weighing 200-225 g (Taconic Labs, Germantown, N.Y.) were removed, frontal cortex dissected and rapidly frozen. Membranes were prepared by homogenizing tissues in 20 volumes (w/v) of 50 mM Tris containing 120 mM NaCl and 5 mM KCl, (pH 7.4 at 25° C.), using a Brinkman Polytron and centrifuged at 50,000×g for 10 min at 4° C. The resulting pellet was resuspended in buffer, recentrifuged and resuspended in buffer to a concentration of 80 mg/mL. Ligand binding experiments were conducted in assay tubes containing 0.5 mL buffer for 60 min at 0-4° C. […] Nonspecific binding was determined using 1 mM desipramine. Incubations were terminated by rapid filtration through Whatman GF/B filters, presoaked in 0.05% polyethylenimine, using a Brandel R48 filtering manifold (Brandel Instruments Gaithersburg, Md.). The filters were washed twice with 3 mL cold buffer and transferred to scintillation vials. Beckman Ready Value (3.0 mL) was added and the vials were counted using a Beckman 6000 liquid scintillation counter (Beckman Coulter Instruments, Fullerton, Calif.). […] All compounds were tested as racemic mixtures.

Data set [2] in a line: Brain concentrations in mice. Particulars: mouse brain; for IV brain Conc. ng/g ± SD: 10 mg/kg IV; for PO brain Conc. ng/g ± SD: 10 mg/kg PO. On the procedure: Plasma was harvested from blood by centrifugation. Additionally at two selected time points (i.e. 30 min and 2 h) brains were collected following both oral and IV dosing. Samples were extracted from plasma by a single one-step protein precipitation method (as described in bioanalysis section below). For brain tissue, whole brains were weighed and homogenized in two times the volume of acetonitrile, followed by vortexing and centrifugation. Once extracted, the samples were analyzed via LC/MS/MS (as described in bioanalysis section below). Non-compartmental-analysis module in WinNonlin™ (version 5.3) was used to assess pharmacokinetic parameters including maximal concentration (Cmax), time to Cmax (Tmax), area under the curve (AUClast), area extrapolated to infinity (AUCO-∞), terminal disposition rate constant (ke), and terminal half-life (t½).
Briefly, plasma samples were thawed on ice prior to extraction. Samples (50 μL) were extracted in 300 μL acetonitrile containing 1000 nM losartan as internal standard. For brain, 50 μL of the supernatant from homogenized tissue was extracted with 100 μL acetonitrile containing 1000 nM losartan as internal standard. Extracts were centrifuged at 16000×g at 4° C. for 10 minutes. Supernatants were transferred to a new siliconized tube and dried under N2 at 45° C. for 30 min. Samples were reconstituted with 100 μL of 30% acetonitrile, vortexed and centrifuged. Supernatants (95 μL) were transferred to a 250 μL polypropylene autosampler vials sealed with a Teflon cap and a volume of 10 μL was injected onto the ultra-performance liquid chromatography (UPLC) instrument for quantitative analysis using a temperature-controlled autosampler operating at 10° C.
The instrument was controlled by the Xcalibur software 2.3 (Thermo Scientific). Samples were introduced to the interface through Turbo Ion Spray with the temperature setting at 350° C.
Chromatographic analysis was performed using an Accela™ ultra high-performance system consisting of an analytical pump, and an autosampler coupled with TSQ Vantage mass spectrometer (Thermo Fisher Scientific Inc., Waltham Mass.).

Substrate in data set [3]: ON(O)CCc1ccccc1
Nature of the data set: [3H]DA uptake inhibition in intact COS7 cells, hDAT WT. It counts as cell-based, human. To be noted: other: [3H]DA uptake, pH 7.4, 37.0 °C.

Where two headings read alike, the source gives them in different places.

NET, sequence (Q9WTR4 entry or part of it): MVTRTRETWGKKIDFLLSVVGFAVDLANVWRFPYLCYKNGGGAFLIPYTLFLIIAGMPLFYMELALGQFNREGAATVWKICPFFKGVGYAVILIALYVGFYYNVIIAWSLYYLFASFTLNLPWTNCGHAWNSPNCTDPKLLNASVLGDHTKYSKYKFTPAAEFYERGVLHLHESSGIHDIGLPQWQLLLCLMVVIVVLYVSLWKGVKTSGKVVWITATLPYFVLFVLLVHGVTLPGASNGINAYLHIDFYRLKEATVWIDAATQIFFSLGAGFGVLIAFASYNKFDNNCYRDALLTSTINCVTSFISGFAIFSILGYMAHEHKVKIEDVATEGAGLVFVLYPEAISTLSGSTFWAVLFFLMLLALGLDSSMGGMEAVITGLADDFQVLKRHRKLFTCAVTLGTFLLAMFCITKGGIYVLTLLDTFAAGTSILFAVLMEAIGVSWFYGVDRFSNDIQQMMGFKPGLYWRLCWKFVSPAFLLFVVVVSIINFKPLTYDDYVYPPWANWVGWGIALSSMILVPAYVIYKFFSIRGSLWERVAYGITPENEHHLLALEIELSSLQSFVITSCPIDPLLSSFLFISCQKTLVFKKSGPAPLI

`Cc1cc(=O)oc2cc(O)ccc12` [4 Methyl Umbelliferone, 4-methylumbelliferone]: the “Phase II, parent compound remaining” value came out at 100% in data set [1] (0 min) and 3.10% in [1] (60 min).

Consider `CNC(=O)CSC(c1ccc(Cl)cc1)c1ccc(Cl)cc1` [Compound 2h, 2-((Bis(4-chlorophenyl)methyl)thio)-N-methylacetamide], for which the Ki on human DAT A480T mutant was 2300 nM; at human SERT wild type, 8300 nM; at human SERT T497A mutant it was 27000 nM; at human DAT wild type it was 3700 nM. The “affinity at DAT A480T compared to DAT WT” value on human DAT A480T mutant is on record as “essentially the same”. In addition, the “affinity at SERT T497A compared to SERT WT” value on human SERT T497A mutant (uptake inhibition, COS7 cells) is on record as “significantly decreased”.

For the molecule `NCCSC(c1ccc(Br)cc1)c1ccc(Br)cc1` [Compound 4c, 2-((bis(4-bromophenyl)methyl)thio)ethan-1-amine], the “improvement in DAT affinity, halogen-substituted v. unsubstituted analog” value at DAT was found to be 3 fold. Moreover, the “increase in SERT affinity, halogen-substituted v. unsubstituted analog” value on SERT came out at 9 fold.

Consider `NCCSC(c1ccc(Cl)cc1)c1ccc(Cl)cc1` [Compound 4b, 2-((bis(4-chlorophenyl)methyl)thio)ethan-1-amine], for which the Ki at human DAT A480T mutant came to 1370 nM; on human SERT wild type, 270 nM; at human SERT T497A mutant, 170 nM; at human DAT wild type, 1210 nM. In addition, the “affinity at DAT A480T compared to DAT WT” value on human DAT A480T mutant is reported as “remain unchanged”. The “affinity at SERT T497A compared to SERT WT” value at human SERT T497A mutant was “remain unchanged”.

`[O-][S+](CCNCCCc1ccccc1)C(c1ccc(Br)cc1)c1ccc(Br)cc1` (stereo not drawn) [Compound 5e, N-(2-((bis(4-bromophenyl)methyl)sulfinyl)ethyl)-3-phenylpropan-1-amine] returned a Ki at NET of 7.58 µM. Also, the “selectivity among the monoamine transporters (in words)” value on DAT (DAT, SERT, NET binding, rat brain membranes) was “SERT-selective”.

Turning to `Fc1ccc(C(SCCNCCCc2ccccc2)c2ccc(F)cc2)cc1` [Compound 4g, N-(2-((bis(4-fluorophenyl)methyl)thio)ethyl)-3-phenylpropan-1-amine], in data set [2] (0.5 h), the “IV brain Conc. ng/g ± SD” value is on record as 4776 (1324) ng/g and the “PO brain Conc. ng/g ± SD” value is 369 (303) ng/g. In addition, in [2] (2 h), the “IV brain Conc. ng/g ± SD” value was 14111 (8093) ng/g and the “PO brain Conc. ng/g ± SD” value is 223 (90) ng/g. At NET, this molecule registered a Ki of 3.85 µM.

Turning to `CNC(=O)CSC(c1ccc(Br)cc1)c1ccc(Br)cc1` [Compound 2i, 2-((Bis(4-bromophenyl)methyl)thio)-N-methylacetamide], the Ki at NET turned out to be 11.2 µM. The “improvement in DAT affinity, halogen-substituted v. unsubstituted analog” value on DAT came to 6 fold. Besides, the “increase in SERT affinity, halogen-substituted v. unsubstituted analog” value on SERT is greater than 50 fold.

Take `NCCc1c[nH]c2ccc(O)cc12` [Compound 5-HT, 5-hydroxytryptamine, reference compound]: the Km is 520 nM on human SERT wild type (read-out: hSERT WT KM) and 1090 nM at human SERT T497A mutant (read-out: hSERT T497A KM).

With `NCCSC(c1ccccc1)c1ccccc1` [Compound 4a, 2-(benzhydrylthio)ethan-1-amine], the Ki worked out at 0.982 ± 0.0433 µM on NET; 720 nM at human DAT A480T mutant; 690 nM at human SERT wild type; 630 nM on human SERT T497A mutant; 390 nM on human DAT wild type. The “affinity at DAT A480T compared to DAT WT” value at human DAT A480T mutant was “remain unchanged”. Further, the “affinity at SERT T497A compared to SERT WT” value at human SERT T497A mutant (uptake inhibition, COS7 cells) is recorded as “remain unchanged”.

B1: human DAT wild type (Homo sapiens) (protein)
chain: MSKSKCSVGLMSSVVAPAKEPNAVGPKEVELILVKEQNGVQLTSSTLTNPRQSPVEAQDRETWGKKIDFLLSVIGFAVDLANVWRFPYLCYKNGGGAFLVPYLLFMVIAGMPLFYMELALGQFNREGAAGVWKICPILKGVGFTVILISLYVGFFYNVIIAWALHYLFSSFTTELPWIHCNNSWNSPNCSDAHPGDSSGDSSGLNDTFGTTPAAEYFERGVLHLHQSHGIDDLGPPRWQLTACLVLVIVLLYFSLWKGVKTSGKVVWITATMPYVVLTALLLRGVTLPGAIDGIRAYLSVDFYRLCEASVWIDAATQVCFSLGVGFGVLIAFSSYNKFTNNCYRDAIVTTSINSLTSFSSGFVVFSFLGYMAQKHSVPIGDVAKDGPGLIFIIYPEAIATLPLSSAWAVVFFIMLLTLGIDSAMGGMESVITGLIDEFQLLHRHRELFTLFIVLATFLLSLFCVTNGGIYVFTLLDHFAAGTSILFGVLIEAIGVAWFYGVGQFSDDIQQMTGQRPSLYWRLCWKLVSPCFLLFVVVVSIVTFRPPHYGAYIFPDWANALGWVIATSSMAMVPIYAAYKFCSLPGSFREKLAYAIAPEKDRELVDRGEVRQFTLRHWLKV
Consider B1, for which the Km in data set [3] is recorded as 1,160 nM.
